The assay concerns S. aureus MW2. In words: RNAseq differential gene expression. It is filed as cell-based, Staphylococcus aureus. Conditions: 0.5× MIC, 30 min. On the procedure:
553 For RNAseq studies, we followed the recommended procedure by Novogene (Sacramento,
554 CA, USA) (22). In brief, we used exponential cultures of S. aureus MW2 grown in TSB medium
555 adjusted to OD600=0.4. We treated 10 ml of the bacterial culture with 0.5× MIC of CIT-8 or water
556 (as a negative control) for 30 min at 37°C (180 rpm). After that, we washed the bacteria three times
557 with PBS and stored the pellet at -80°C. We isolated total RNA from the pellet and checked the
558 purity using the NanoPhotometer® spectrophotometer (Implen, CA, USA). We assessed RNA
559 integrity and concentration using the RNA Nano 6000 Assay Kit following manufacturer
560 instructions in a Bioanalyzer 2100 system (Agilent Technologies, CA, USA). We evaluated RNA
561 degradation and contamination on 1% agarose gels. To prepare libraries for transcriptome
562 sequencing, we used 1 µg RNA per sample as input material and generated sequencing libraries
563 using NEBNext® UltraTM RNA Library Prep Kit for Illumina® (NEB, MA, USA) following
564 manufacturer’s recommendations and added index codes to attribute sequences to each sample.
565 Briefly, we purified mRNA from total RNA using poly-T oligo-attached magnetic beads, followed
566 by fragmentation using divalent cations under elevated temperature in NEBNext First Strand
567 Synthesis Reaction Buffer (5×). To synthesize cDNA, we used random hexamer primers and M-
568 MuLV Reverse Transcriptase (RNase H-) to create the first strand, followed by DNA Polymerase
569 I and RNase H to create the second strand (23). The remaining overhangs were converted into
570 blunt ends using exonuclease/polymerase activities. We adenylated the 3’ ends of the DNA
571 fragments, and further ligated NEBNext Adaptors with hairpin loop structures to prepare for
572 hybridization. To select cDNA fragments of preferred length (150-200 bp), we purified the whole
573 library fragments with AMPure XP system (Beckman Coulter, CA, USA). Next, to the size-
574 selected, adaptor ligated cDNA, we added 3 µl USER Enzyme (NEB, MA, USA) at 37°C for 15
575 min followed by 5 min at 95°C before carrying out the polymerase chain reaction (PCR). We
576 performed the PCR with Phusion High-Fidelity DNA polymerase, Universal PCR primers, and
577 Index (X) Primer. Finally, we purified the PCR products with an AMPure XP system (Beckman
578 Coulter, CA, USA) and library quality was assessed on the Agilent Bioanalyzer 2100 system
579 (Agilent Technologies, CA, USA). […]

Turning to H-GLFKVIKKLLKVI-NH2 [CIT-8], the “Downregulation of tRNAGln” value came out at 8.5 fold, the “Downregulation of tRNAarg” value was found to be 7.7 fold, the “Downregulation of tRNAcys” value is given as 6.8 fold and the “Downregulation of tRNAser” value was determined as 8.4 fold. Besides, the “Upregulation of pdxS” value is reported as 5.3 fold, the “Upregulation of purH” value was determined as 3.6 fold, the “Upregulation of purL” value came to 5.2 fold and the “Upregulation of purQ” value was found to be 5.0 fold. In addition, the “Upregulation of purS” value is given as 5.0 fold. Under “P < 0.05”, the “Number of genes downregulated by at least 2-fold” value came to 267 genes and the “Number of genes upregulated by more than 2-fold” value is 179 genes.

Values taken from article PMC12165799, “Antimicrobial peptide developed with machine learning sequence optimization targets drug resistant Staphylococcus aureus in mice” (The Journal of Clinical Investigation, 2025).
